Source: ChEMBL document CHEMBL4673332, “Neuroprotective and Anti-inflammatory Ditetrahydrofuran-Containing Diarylheptanoids from Tacca chantrieri” (J Nat Prod, 2020)

What was measured:
BV-2 [1] = assay: Antiinflammatory activity against LPS-induced mouse BV-2 cells assessed NO production at 1 uM preincubated for 2 hrs followed by LPS-stimulation and measured after 24 hrs by Greiss reagent based assay relative to control; type: functional; details: time 26 hrs
BV-2 [2] = assay: Antiinflammatory activity against LPS-induced mouse BV-2 cells assessed NO production at 10 uM preincubated for 2 hrs followed by LPS-stimulation and measured after 24 hrs by Greiss reagent based assay relative to control; type: functional; details: time 26 hrs
BV-2 [3] = assay: Cytotoxicity against mouse BV-2 cells assessed as reduction cell viability at 10 uM after 24 hrs by MTT assay; type: cell-based; details: bv-2, 24 h
SH-SY5Y [4] = assay: Neuroprotective activity in human SH-SY5Y cells assessed as reduction in amyloid beta (25 to 35)-induced cytotoxicity by measuring cell viability at 1 uM after 24 hrs by MTT assay relative to control; type: functional
SH-SY5Y [5] = assay: Neuroprotective activity in human SH-SY5Y cells assessed as reduction in amyloid beta (25 to 35)-induced cytotoxicity by measuring cell viability at 10 uM after 24 hrs by MTT assay relative to control; type: functional
SH-SY5Y [6] = assay: Cytotoxicity against human SH-SY5Y cells assessed as reduction cell viability at 1 to 10 uM after 24 hrs by MTT assay; type: cell-based; details: dose 1-10 µM
[7] = Cytotoxicity against mouse BV-2 cells assessed as cell viability at 10 uM after 24 hrs by MTT assay relative to control; type: cell-based; details: read-out: Activity

COc1cc(CC[C@@H](O)C[C@H](O)CCc2ccc(O)cc2)ccc1O
Activity (BV-2 [1]): 99.4% | Activity (BV-2 [2]): 85.7% | Activity (BV-2 [3]): Non-Toxic

COc1cc(/C=C/C=C/C(=O)CCc2ccc(O)cc2)cc(OC)c1O
Activity (BV-2 [1]): 96.8% | Activity (SH-SY5Y [4]): 66.1% | Activity (BV-2 [2]): 77.4% | Activity (SH-SY5Y [5]): 81.3% | Activity (BV-2 [3]): Non-Toxic | Activity (SH-SY5Y [6]): Non-Toxic

COc1cc([C@@H]2O[C@@H](CC(=O)CCc3ccc(O)cc3)[C@@H]3[C@H]2[C@H](CC(=O)CCc2ccc(O)cc2)O[C@H]3c2ccc(O)cc2)ccc1O
Activity (BV-2 [1]): 99.6% | Activity (SH-SY5Y [4]): 69.6% | Activity (BV-2 [2]): 86.8% | Activity (SH-SY5Y [5]): 91.9% | Activity (BV-2 [3]): Non-Toxic | Activity (SH-SY5Y [6]): Non-Toxic

O=C(CCc1ccc(O)cc1)C[C@@H]1O[C@@H](c2ccc(O)cc2)[C@H]2[C@@H]1[C@H](c1ccc(O)cc1)O[C@H]2CC(=O)CCc1ccc(O)cc1
Activity (BV-2 [1]): 100.9% | Activity (SH-SY5Y [4]): 70.7% | Activity (BV-2 [2]): 87.8% | Activity (SH-SY5Y [5]): 70.9% | viability at 24 h, 10 µM [7]: < 70%

COc1cc([C@@H]2O[C@@H](CC(=O)CCc3ccc(O)cc3)[C@@H]3[C@H]2[C@H](CC(=O)CCc2ccc(O)cc2)O[C@H]3c2ccc(O)c(OC)c2)ccc1O
Activity (BV-2 [1]): 101.4% | Activity (SH-SY5Y [4]): 69% | Activity (BV-2 [2]): 85% | Activity (SH-SY5Y [5]): 76.3% | viability at 24 h, 10 µM [7]: < 70% | Activity (SH-SY5Y [6]): Non-Toxic

COc1cc(CC[C@@H](O)C[C@H](O)CCc2ccc(O)c(OC)c2)ccc1O
Activity (BV-2 [1]): 101.2% | Activity (BV-2 [2]): 84.3% | Activity (BV-2 [3]): Non-Toxic

Oc1ccc2cc1Oc1ccc(cc1)CC[C@H](O)C[C@@H](O)CC2 (relative stereo)
Activity (BV-2 [1]): 98.8% | Activity (BV-2 [2]): 84.6% | Activity (BV-2 [3]): Non-Toxic

Oc1ccc(CC[C@@H](O)C[C@H](O)CCc2ccc(O)cc2)cc1 [(+)-HANNOKINOL]
Activity (BV-2 [1]): 101.9% | Activity (BV-2 [2]): 94.8% | Activity (BV-2 [3]): Non-Toxic

O=C(O[C@@H]1Cc2c(O)cc(O)cc2O[C@@H]1c1cc(O)c(O)c(O)c1)c1cc(O)c(O)c(O)c1 [EPIGALOCATECHIN GALLATE]
Activity (SH-SY5Y [5]): 80.8%

Oc1ccc(/C=C/c2cc(O)cc(O)c2)cc1 [RESVERATROL]
Activity (BV-2 [1]): 67.5%
